The values that follow come from publication PMC10743905, “Design, Synthesis, and In Vitro and In Vivo Bioactivity Studies of Hydrazide–Hydrazones of 2,4-Dihydroxybenzoic Acid” (International Journal of Molecular Sciences, 2023).

In brackets after ≈: the same amount, converted by molar mass. Read-outs that look alike come from different tables or passages of the source.

Common to all, as to format: cell-based
In experiment [1] the test system is Candida parapsilosis ATCC 22019. Briefly: Broth microdilution MIC/MFC. Conditions: for MFC / MIC: Lodderomyces parapsilosis; for MFC: ATCC22019, read-out: MFC; for MIC: ATCC22019, read-out: MIC. The method, boiled down: (§1)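 Compounds were dissolved in DMSO and tested against reference strains, including Gram-positive bacteria and Candida spp., following EUCAST and CLSI broth microdilution procedures. Two-fold serial dilutions covered final concentrations from 1000 to 0.488 µg/ml, in RPMI 1640/MOPS for fungi and Mueller-Hinton broth for bacteria. Each strain was added as a 0.5 McFarland suspension.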
In general terms: In broth dilution the organism is exposed to a series of concentrations in liquid medium.

The test system of experiment [2] is Candida krusei ATCC 14243. Briefly: Broth microdilution MIC/MFC. The note with it: for MIC / MFC: Pichia kudriavzevii; for MIC: ATCC14243, read-out: MIC; for MFC: ATCC14243, read-out: MFC. The method, boiled down:
as §1

Experiment [3] deals with Candida albicans ATCC 10231. Briefly: Broth microdilution MIC/MFC. Conditions: for MFC: ATCC10231, read-out: MFC; for MIC: ATCC10231, read-out: MIC. The gist of the method: as §1
Experiment [4] deals with Candida glabrata ATCC 90030. Kind of experiment: Broth microdilution MIC/MFC. Conditions: for MFC / MIC: Nakaseomyces glabratus; for MFC: ATCC90030, read-out: MFC; for MIC: ATCC90030, read-out: MIC. The method, boiled down: as §1
For experiment [5], the system named is Bacillus subtilis ATCC 6633. Briefly: Broth microdilution MIC/MBC. Conditions: for MBC: ATCC6633. The method, boiled down:
as §1

Experiment [6] deals with Escherichia coli ATCC 25922. Kind of experiment: Broth microdilution MIC/MBC. Conditions: for MBC / MIC: ATCC25922. The method, boiled down:
as §1

For experiment [7], the system named is Enterococcus faecalis ATCC 29212. Kind of experiment: Broth microdilution MIC/MBC. The note with it: for MBC: ATCC29212, read-out: MBC; for MIC: ATCC29212, read-out: MIC. The gist of the method:
as §1

Experiment [8] deals with Bacillus cereus ATCC 10876. Kind of experiment: Broth microdilution MIC/MBC. Conditions: for MBC: ATCC10876. The gist of the method: as §1
For experiment [9], the system named is Klebsiella pneumoniae ATCC 13883. Kind of experiment: Broth microdilution MIC/MBC. Conditions: for MBC / MIC: ATCC13883. The gist of the method:
as §1

In experiment [10] the test system is Bordetella bronchiseptica ATCC 4617. Kind of experiment: Broth microdilution MIC/MBC. Conditions: for MBC / MIC: ATCC4617. The method, boiled down:
as §1

In general, MFC refers to the smallest concentration meeting the test's criterion for killing the fungus. For orientation: MIC means the least concentration at which growth counts as inhibited. Broadly, the MBC is the smallest concentration meeting the test's criterion for killing. On to `CCCc1ccc(/C=N/NC(=O)c2ccc(O)cc2O)cc1` [Compound 13, 2,4-dihydroxy-N-[(4-propylphenyl)methylidene]benzohydrazide], for which the MFC/MIC in [1], in experiment [3] and in [4] was above 1 each time. For the same compound, the MFC in experiment [1], in experiment [3] and in [4] was above 1000 µg/mL in each case. Also, the minimal inhibitory concentration (MIC) was 1000 µg/mL (≈ 3.35 mM) in experiment [1]; above 1000 µg/mL in experiment [2]; 1000 µg/mL (≈ 3.35 mM) in experiment [3]; 1000 µg/mL (≈ 3.35 mM) in experiment [4]; 1000 µg/mL (≈ 3.35 mM) in experiment [5] (ATCC6633, read-out: MIC); 1000 µg/mL (≈ 3.35 mM) in experiment [6]. The minimum inhibitory concentration (MIC) was determined as 1000 µg/mL (≈ 3.35 mM) in [7]; 1000 µg/mL (≈ 3.35 mM) in [8] (ATCC10876, read-out: MIC); 1000 µg/mL (≈ 3.35 mM) in experiment [9]; 1000 µg/mL (≈ 3.35 mM) in [10]. The MBC/MIC in experiment [5], in experiment [6], in experiment [7], in experiment [8], in experiment [9] and in [10] was above 1 throughout. In addition, the MBC in [5], in experiment [6], in experiment [7], in [8], in [9] and in experiment [10] was above 1000 µg/mL each time.

As to `O=C(N/N=C/c1cc(I)cc(I)c1O)c1ccc(O)cc1O` [Compound 18, 2,4-dihydroxy-N-[(2-hydroxy-3,5-diiodophenyl)methylidene]benzohydrazide], the MFC/MIC in experiment [1] is above 2; in experiment [2], above 1; in experiment [3], above 1; in [4] it was above 1. Also, the MFC in [1], in [2], in experiment [3] and in experiment [4] was above 1000 µg/mL each time. For the same compound, the MIC was 500 µg/mL (≈ 0.954 mM) in experiment [1]; 1000 µg/mL (≈ 1.91 mM) in experiment [2]; 1000 µg/mL (≈ 1.91 mM) in [3]; 1000 µg/mL (≈ 1.91 mM) in experiment [4]; 1.95 µg/mL (≈ 0.00372 mM) in [5]; 1.95 µg/mL (≈ 0.00372 mM) in [5] (ATCC6633, read-out: MIC). Besides, the MIC was 500 µg/mL (≈ 0.954 mM) in experiment [6]; 3.91 µg/mL (≈ 0.00746 mM) in experiment [7]; 3.91 µg/mL (≈ 0.00746 mM) in [8]; 3.91 µg/mL (≈ 0.00746 mM) in experiment [8] (ATCC10876, read-out: MIC); 500 µg/mL (≈ 0.954 mM) in [9]; 500 µg/mL (≈ 0.954 mM) in [10]. In addition, the MBC/MIC in experiment [5] is recorded as 2; in experiment [6] it was above 2; in experiment [7] it was 4; in experiment [8] it was 4; in experiment [9], above 2; in experiment [10], above 2. For the same compound, the MBC is 3.91 µg/mL (≈ 0.00746 mM) in experiment [5]; above 1000 µg/mL in experiment [6]; 15.6 µg/mL (≈ 0.0298 mM) in experiment [7]; 15.6 µg/mL (≈ 0.0298 mM) in experiment [8]; above 1000 µg/mL in [9]; above 1000 µg/mL in [10].

As for `O=C(N/N=C/c1ccccc1[N+](=O)[O-])c1ccc(O)cc1O` [Compound 19, 2,4-dihydroxy-N-[(2-nitrophenyl)methylidene]benzohydrazide], the MFC/MIC in [1] is above 4; in experiment [2], above 2; in experiment [3], above 4; in experiment [4] it was above 2. Also, the MFC in experiment [1], in experiment [2], in [3] and in experiment [4] was above 1000 µg/mL each time. The MIC in [1] came out at 250 µg/mL (≈ 0.83 mM); in experiment [2], 500 µg/mL (≈ 1.66 mM); in experiment [3] it was 250 µg/mL (≈ 0.83 mM); in experiment [4] it was 500 µg/mL (≈ 1.66 mM); in experiment [5] (ATCC6633, read-out: MIC) it was 250 µg/mL (≈ 0.83 mM); in [6], 1000 µg/mL (≈ 3.32 mM). Moreover, the minimal inhibitory concentration (MIC) worked out at 500 µg/mL (≈ 1.66 mM) in experiment [7]; 250 µg/mL (≈ 0.83 mM) in experiment [8] (ATCC10876, read-out: MIC); 500 µg/mL (≈ 1.66 mM) in [9]; 1000 µg/mL (≈ 3.32 mM) in experiment [10]. Moreover, the MBC/MIC in experiment [5] was above 4; in experiment [6], above 1; in experiment [7] it was above 2; in experiment [8], above 4; in experiment [9], above 1; in experiment [10], above 1. The MBC in experiment [5], in experiment [6], in [7], in experiment [8], in [9] and in experiment [10] was above 1000 µg/mL in each case.

In the case of `O=C(N/N=C/c1cccc([N+](=O)[O-])c1)c1ccc(O)cc1O` [Compound 20, 2,4-dihydroxy-N-[(3-nitrophenyl)methylidene]benzohydrazide], the MFC/MIC in [1] and in [3] was above 1 in each case. Besides, the MFC in experiment [1] and in [3] was above 1000 µg/mL throughout. The minimum inhibitory concentration (MIC) in [1] was 1000 µg/mL (≈ 3.32 mM); in [2], above 1000 µg/mL; in [3], 1000 µg/mL (≈ 3.32 mM); in [4], above 1000 µg/mL; in experiment [5] (ATCC6633, read-out: MIC), 250 µg/mL (≈ 0.83 mM); in experiment [6] it was above 1000 µg/mL. The MIC was above 1000 µg/mL in experiment [7]; above 1000 µg/mL in experiment [8] (ATCC10876, read-out: MIC); above 1000 µg/mL in [9]; above 1000 µg/mL in experiment [10]. In experiment [5], this compound yielded an MBC/MIC above 4. For the same compound, the MBC in [5] was above 1000 µg/mL.

Take `O=C(N/N=C/c1ccc([N+](=O)[O-])cc1)c1ccc(O)cc1O` [Compound 21, 2,4-dihydroxy-N-[(4-nitrophenyl)methylidene]benzohydrazide]: the MFC/MIC in [1], in [2] and in experiment [3] was above 2 throughout. Also, the minimum fungicidal concentration (MFC) in [1], in [2] and in [3] was above 1000 µg/mL in each case. Further, the minimal inhibitory concentration (MIC) is 500 µg/mL (≈ 1.66 mM) in experiment [1]; 500 µg/mL (≈ 1.66 mM) in experiment [2]; 500 µg/mL (≈ 1.66 mM) in experiment [3]; above 1000 µg/mL in [4]; 500 µg/mL (≈ 1.66 mM) in [5] (ATCC6633, read-out: MIC); above 1000 µg/mL in experiment [6]. Moreover, the minimal inhibitory concentration (MIC) in experiment [7] is 500 µg/mL (≈ 1.66 mM); in experiment [8] (ATCC10876, read-out: MIC), 500 µg/mL (≈ 1.66 mM); in experiment [9], above 1000 µg/mL; in [10] it was above 1000 µg/mL. Also, the MBC/MIC in experiment [5] was above 2; in [7], above 4; in experiment [8] it was above 2. In addition, the MBC in experiment [5], in experiment [7] and in [8] was above 1000 µg/mL in each case.

As to `O=C(N/N=C/c1ccccc1Cl)c1ccc(O)cc1O` [Compound 22, N-[(2-chlorophenyl)methylidene]-2,4-dihydroxybenzohydrazide], the MFC/MIC in experiment [1], in [2] and in experiment [3] was above 1 throughout. Further, the minimum fungicidal concentration (MFC) in experiment [1], in [2] and in experiment [3] was above 1000 µg/mL throughout. Also, the MIC in experiment [1] was 1000 µg/mL (≈ 3.44 mM); in experiment [2] it was 1000 µg/mL (≈ 3.44 mM); in experiment [3] it was 1000 µg/mL (≈ 3.44 mM); in experiment [4] it was above 1000 µg/mL; in experiment [5] (ATCC6633, read-out: MIC) it was above 1000 µg/mL; in experiment [6], above 1000 µg/mL. For the same compound, the MIC was above 1000 µg/mL in experiment [7]; above 1000 µg/mL in experiment [8] (ATCC10876, read-out: MIC); above 1000 µg/mL in experiment [9]; above 1000 µg/mL in experiment [10].

As to `O=C(N/N=C/c1ccccc1Br)c1ccc(O)cc1O` [Compound 23, N-[(2-bromophenyl)methylidene]-2,4-dihydroxybenzohydrazide], the MFC/MIC in [1] and in experiment [3] was above 1 each time. Further, the MFC in experiment [1] and in [3] was above 1000 µg/mL in each case. The minimum inhibitory concentration (MIC) in experiment [1] is 1000 µg/mL (≈ 2.98 mM); in experiment [2], above 1000 µg/mL; in experiment [3], 1000 µg/mL (≈ 2.98 mM); in [4], above 1000 µg/mL; in experiment [5] (ATCC6633, read-out: MIC) it was above 1000 µg/mL; in experiment [6], above 1000 µg/mL. Moreover, the MIC in experiment [7] was above 1000 µg/mL; in experiment [8] (ATCC10876, read-out: MIC) it was above 1000 µg/mL; in experiment [9] it was above 1000 µg/mL; in experiment [10], above 1000 µg/mL.

On to `O=C(N/N=C/c1ccccc1F)c1ccc(O)cc1O` [Compound 24, N-[(2-fluorophenyl)methylidene]-2,4-dihydroxybenzohydrazide], for which the MFC/MIC in [1], in experiment [2] and in experiment [3] was above 1 each time. For the same compound, the minimal fungicidal concentration (MFC) in experiment [1], in [2] and in experiment [3] was above 1000 µg/mL in each case. Besides, the MIC in experiment [1] was 1000 µg/mL (≈ 3.65 mM); in [2], 1000 µg/mL (≈ 3.65 mM); in [3] it was 1000 µg/mL (≈ 3.65 mM); in experiment [4] it was above 1000 µg/mL; in experiment [5] (ATCC6633, read-out: MIC), 500 µg/mL (≈ 1.82 mM); in experiment [6], above 1000 µg/mL. For the same compound, the minimal inhibitory concentration (MIC) in experiment [7] is 1000 µg/mL (≈ 3.65 mM); in [8] (ATCC10876, read-out: MIC), 1000 µg/mL (≈ 3.65 mM); in [9], above 1000 µg/mL; in experiment [10], above 1000 µg/mL. The MBC/MIC was above 2 in experiment [5], above 1 in experiment [7] and above 1 in experiment [8]. Further, the MBC in experiment [5], in [7] and in [8] was above 1000 µg/mL each time.
